Measurements taken from patent US4232166A, “15-Deoxy-16-hydroxy-17-methylene prostaglandins of the E and F series” (American Cyanamid Company, priority 1979, dated 1980).

What was measured:
Format in all cases: in vivo
[1] = system: bronchospasms elicited by acetylcholine; assay: Konzett procedure: bronchodilator activity in Guinea-Pigs against bronchospasms elicited by intravenous acetylcholine; conditions: Cavia porcellus, three logarithmic cumulative intravenous doses, read-out: ED50 ACETYL CHOLINE
Description: (§1) The bronchodilator activity for representative compounds of this invention was determined in Guinea-Pigs against bronchospasms elicited by intravenous injections of serotonin, histamine, and acetylcholine, by the Konzett procedure the details of which are those discussed by J. Lulling, P Lievens, F. El Sayed and J. Prignot, Arzeimittel-Forschung 18, 995 (1968).
(§2) In the table which follows, bronchodilator activity for representative compounds of the invention against spasmogenic agents serotonin, histamine, and acetylcholine is expressed as an ED50 determined from the results obtained with three logarithmic cumulative intravenous doses.

[2] = system: bronchospasms elicited by serotonin; assay: Konzett procedure: bronchodilator activity in Guinea-Pigs against bronchospasms elicited by intravenous serotonin; conditions: Cavia porcellus, three logarithmic cumulative intravenous doses
Description: as §1, §2

[3] = system: bronchospasms elicited by histamine; assay: Konzett procedure: bronchodilator activity in Guinea-Pigs against bronchospasms elicited by intravenous histamine; conditions: Cavia porcellus, three logarithmic cumulative intravenous doses
Description: as §1, §2

SMILES | ED50 [1] [µg/kg] | ED50 [2] [µg/kg] | ED50 [3] [µg/kg]
C=C(CCC)C(O)C/C=C/[C@H]1[C@H](O)CC(=O)[C@@H]1C/C=C\CCCC(=O)O (relative stereo) [dl 9-oxo-11α,16-dihydroxy-17-methylene-5-cis, 13-trans-prostadienoic acid] | 24 | 5.4 | 10.6
C=C(CCC)C(C)(O)C/C=C/[C@H]1[C@H](O)CC(=O)[C@@H]1C/C=C\CCCC(=O)O (relative stereo) [dl 9-oxo-11α,16-dihydroxy-16-methyl-17-methylene-5-cis,13-trans-prostadienoic acid] | 3.6 | 2.5 | 1.2
